# Source: ChEMBL document CHEMBL5247641, “Discovery of Potent DYRK2 Inhibitors with High Selectivity, Great Solubility, and Excellent Safety Properties for the Treatment of Prostate Cancer” (J Med Chem, 2023)
# Activity calls are given as the source filed them. No cut-off for these calls is given here.
# Key:
# CWR22R [1] = test: Antimigratory activity against human 22Rv1 cells assessed as inhibition of cell migration at 1 to 8 uM incubated for 24 hrs by transwell migration assay; assay type: functional, cell-based; settings: dose 1-8 µM
# DU-145 [2] = test: Induction of apoptosis in human DU-145 cells assessed as increase in cleaved PARP level at 2 to 8 uM incubated for 24 hrs by Western blot analysis; assay type: functional, cell-based; settings: dose 2-8 µM
# CWR22R [3] = test: Antiproliferative activity against human 22Rv1 cells assessed as inhibition of clone formation at 1 to 8 uM incubated for 2 weeks by crystal violet staining based assay; assay type: functional, cell-based; settings: dose 1-8 µM
# [4] = Acute toxicity in ICR mouse assessed as appearance of lesions in liver at 5000 to 10000 mg/kg,po and measured after 14 days by H and E staining based microscopic analysis; assay type: organism-based; settings: in vivo, 336 h, dose 5000-10000 mg/kg, time 14 day
# [5] = Acute toxicity in ICR mouse assessed as change in kidney weight at 1000 to 10000 mg/kg,po and measured after 14 days; assay type: organism-based; settings: in vivo, 336 h, dose 1000-10000 mg/kg, time 14 day
# DU-145 [6] = test: Induction of cell cycle arrest in human DU-145 cells assessed as accumulation of cells at S phase at 1 uM incubated for 24 hrs by propidium iodide based flow cytometric analysis (Rvb= 29.02%); assay type: functional
# CWR22R [7] = test: Induction of cell cycle arrest in human 22Rv1 cells assessed as accumulation of cells at G1 phase at 4 uM incubated for 24 hrs by propidium iodide based flow cytometric analysis (Rvb= 55.28%); assay type: functional
# [8] = Acute toxicity in ICR mouse assessed as change in spleen weight at 1000 to 10000 mg/kg,po and measured after 14 days; assay type: organism-based; settings: in vivo, 336 h, dose 1000-10000 mg/kg, time 14 day
# CWR22R [9] = test: Induction of apoptosis in human 22Rv1 cells assessed as increase in p53 level at 2 to 8 uM incubated for 24 hrs by Western blot analysis; assay type: functional, cell-based; settings: dose 2-8 µM
# CWR22R [10] = test: Induction of cell cycle arrest in human 22Rv1 cells assessed as accumulation of cells at S phase at 1 uM incubated for 24 hrs by propidium iodide based flow cytometric analysis (Rvb=20.51 %); assay type: functional
# CWR22R [11] = test: Antiproliferative activity against human 22Rv1 cells assessed as increase in p27 expression level at 2 to 8 uM incubated for 24 hrs by Western blot analysis; assay type: functional, cell-based; settings: dose 2-8 µM
# DU-145 [12] = test: Induction of cell cycle arrest in human DU-145 cells assessed as accumulation of cells at S phase at 2 uM incubated for 24 hrs by propidium iodide based flow cytometric analysis (Rvb= 29.02%); assay type: functional
# [13] = molecular target: T1, Dual specificity tyrosine-phosphorylation-regulated kinase 2 (Homo sapiens) (UniProt Q92630); test: Inhibition of DYRK2 in human DU-145 cells assessed as reduction in 4E-BP1 phosphorylation at 2 to 8 uM incubated for 24 hrs by Western blot analysis; assay type: cell-based; settings: dose 2-8 µM
# T1 sequence (whole entry): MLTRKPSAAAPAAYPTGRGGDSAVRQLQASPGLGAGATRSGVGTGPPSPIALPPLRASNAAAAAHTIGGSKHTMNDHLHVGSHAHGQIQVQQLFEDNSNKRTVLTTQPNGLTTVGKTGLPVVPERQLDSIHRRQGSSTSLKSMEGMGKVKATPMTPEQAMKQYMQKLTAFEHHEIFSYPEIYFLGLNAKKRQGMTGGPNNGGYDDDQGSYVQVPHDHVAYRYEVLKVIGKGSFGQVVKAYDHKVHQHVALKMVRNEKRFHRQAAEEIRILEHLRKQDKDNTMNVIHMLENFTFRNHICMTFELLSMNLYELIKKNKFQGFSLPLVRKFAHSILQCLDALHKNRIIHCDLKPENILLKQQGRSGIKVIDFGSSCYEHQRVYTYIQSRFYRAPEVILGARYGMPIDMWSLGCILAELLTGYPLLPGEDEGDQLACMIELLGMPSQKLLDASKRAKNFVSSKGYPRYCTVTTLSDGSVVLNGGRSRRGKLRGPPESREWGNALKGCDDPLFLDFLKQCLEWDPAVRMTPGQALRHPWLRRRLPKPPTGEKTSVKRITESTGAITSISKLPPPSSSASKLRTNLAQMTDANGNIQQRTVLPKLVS
# DU-145 [14] = test: Induction of apoptosis in human DU-145 cells assessed as apoptotis rate at 2 uM incubated for 24 hrs by Annexin V-FITC and PI staining based flow cytometry (Rvb= 4.36%); assay type: functional
# DU-145 [15] = test: Induction of apoptosis in human DU-145 cells assessed as apoptotis rate at 4 uM incubated for 24 hrs by Annexin V-FITC and PI staining based flow cytometry (Rvb= 4.36%); assay type: functional
# [16] = Acute toxicity in ICR mouse assessed as appearance of lesions in spleen at 5000 to 10000 mg/kg,po and measured after 14 days by H and E staining based microscopic analysis; assay type: organism-based; settings: in vivo, 336 h, dose 5000-10000 mg/kg, time 14 day
# CWR22R [17] = test: Induction of cell cycle arrest in human 22Rv1 cells assessed as accumulation of cells at G1 phase at 1 uM incubated for 24 hrs by propidium iodide based flow cytometric analysis (Rvb= 55.28%); assay type: functional
# CWR22R [18] = test: Induction of apoptosis in human 22Rv1 cells assessed as apoptotis rate at 2 uM incubated for 24 hrs by Annexin V-FITC and PI staining based flow cytometry (Rvb= 3.08%); assay type: functional
# [19] = Metabolic stability in human liver microsomes assessed as half life in presence of NADPH incubated up to 60 mins by LC-MS/MS analysis; assay type: ADME, Microsome
# CWR22R [20] = test: Induction of cell cycle arrest in human 22Rv1 cells assessed as accumulation of cells at G2 phase at 4 uM incubated for 24 hrs by propidium iodide based flow cytometric analysis (Rvb=24.21 %); assay type: functional
# DU-145 [21] = test: Antiproliferative activity against human DU-145 cells assessed as increase in p27 expression level at 2 to 8 uM incubated for 24 hrs by Western blot analysis; assay type: functional, cell-based; settings: dose 2-8 µM
# [22] = Acute toxicity in ICR mouse assessed as appearance of lesions in kidney at 5000 to 10000 mg/kg,po and measured after 14 days by H and E staining based microscopic analysis; assay type: organism-based; settings: in vivo, 336 h, dose 5000-10000 mg/kg, time 14 day
# DU-145 [23] = test: Antitumor activity against human DU-145 xenografted in BALB/c nude mouse as upregulation of E-cadherin level in tumor at 100 to 200 mg/kg,po administrated once daily for 21 days by Western blot analysis; assay type: functional, organism-based; settings: dose 100-200 mg/kg, time 21.0 day
# DU-145 [24] = test: Induction of cell cycle arrest in human DU-145 cells assessed as accumulation of cells at G1 phase at 4 uM incubated for 24 hrs by propidium iodide based flow cytometric analysis (Rvb= 53.46%); assay type: functional
# CWR22R [25] = test: Induction of apoptosis in human 22Rv1 cells assessed as apoptotis rate at 8 uM incubated for 24 hrs by Annexin V-FITC and PI staining based flow cytometry (Rvb= 3.08%); assay type: functional
# DU-145 [26] = test: Antitumor activity against human DU-145 xenografted in BALB/c nude mouse as upregulation of cleaved PARP level in tumor at 100 to 200 mg/kg,po administrated once daily for 21 days by Western blot analysis; assay type: functional, organism-based; settings: dose 100-200 mg/kg, time 21.0 day
# CWR22R [27] = test: Induction of cell cycle arrest in human 22Rv1 cells assessed as accumulation of cells at G2 phase at 1 uM incubated for 24 hrs by propidium iodide based flow cytometric analysis (Rvb=24.21 %); assay type: functional
compound,measurement,setting,value
Cl.O=C(c1ccc(Nc2ncc(F)c(-c3ccc4scnc4c3)n2)nc1)N1CCNCC1,Activity,CWR22R [1],Active
same,Activity,DU-145 [2],Active
same,Activity,CWR22R [3],Active
same,Activity,[4],Non-Toxic
same,Activity,[5],Non-Toxic
same,Activity,DU-145 [6],28.05%
same,Activity,CWR22R [7],66.73%
same,Activity,[8],Non-Toxic
same,Activity,CWR22R [9],Active
same,Activity,CWR22R [10],16.48%
same,Activity,CWR22R [11],Active
same,Activity,DU-145 [12],26.15%
same,inhibition,[13],Active
same,Activity,DU-145 [14],6.73%
same,Activity,DU-145 [15],7.86%
same,Activity,[16],Non-Toxic
same,Activity,CWR22R [17],60.51%
same,Activity,CWR22R [18],11.25%
same,half-life,[19],1.3 h
same,Activity,CWR22R [20],19.42%
same,Activity,DU-145 [21],Active
same,Activity,[22],Non-Toxic
same,Activity,DU-145 [23],Active
same,Activity,DU-145 [24],68.51%
same,Activity,CWR22R [25],24.04%
same,Activity,DU-145 [26],Active
same,Activity,CWR22R [27],23.01%
